Assay results taken from patent publication US8390681B1, “Computer assisted semen analyzer to analyze digital video clips received from a remote location” (LifeCell Dx, Inc., priority 2008, dated 2013).

Key:
[1] = tested on: human sperm; experiment: Human sperm vigorous swimming (Hyperactivation, computer-tracking); assay type: cell-based
From the text: Fertilization assays include changes in human sperm vigorous swimming (Hyperactivation, computer-tracking), changes in % moving, and changes in the ability of drug-treated sperm to complete the acrosome reaction, and ability to bind to the human egg cover (Hemizona assay).

[2] = tested on: fertilization capacity; experiment: Fertilization capacity, concentration dependence of cannabinoids; conditions: higher concentrations
[3] = tested on: mouse sperm; experiment: Mouse sperm pre-treated with drug, then artificial insemination into the mouse uterus; fertilization and embryo development scored; assay type: in vivo
From the text: Studies show the cannabinoid implications in vivo in the mouse model. In separate experiments, mouse sperm are pre-treated with Meth-anandamide or AM-1346 and then the mouse sperm are inseminated into the mouse uterus (artificial insemination).
Each egg could be scored as 1-cell, 2-cell, 3-4 cell, 5-8 cell, morula, blastocysts or degenerated. Brief exposure of the sperm to the drug before insemination produces significant inhibition of 5 parameters. Compared to Control, the treated animals ovulate fewer ova (p<0.01, t-test). […] By Day 2, treatment produces a lower % of 2-cell eggs—again, fewer eggs are cleaving. […] The drug severely impairs fertilization and embryo development.

[4] = sperm pre-treated with 100 nM, Day 1
[5] = sperm pre-treated with 100 nM, Day 3

CCCCC/C=C\C/C=C\C/C=C\C/C=C\CCCC(=O)NCc1ccoc1 [UCM]
vigorous swimming of human sperm [1]: blocks

CCCCC/C=C\C/C=C\C/C=C\C/C=C\CCCC(=O)NCCO [Anandamide, arachidonoyl-ethanolamide]
effect on fertilization capacity [2]: trends towards reduced fertilization capacity

CCCCC/C=C\C/C=C\C/C=C\C/C=C\CCCC(=O)N[C@H](C)CO [Methanandamide, R-methanandamide]
Number embryos per female ([3]; sperm pre-treated with 100 nM before insemination): 4.3 ± 0.7 | % ova as 1-cell on Day 1 [3, 4]: 91.3% | Number of 2-cells on Day 1 [3, 4]: 0.6 ± 0.2 | % embryos >2-cell on Day 3 [3, 5]: 25.0% | % embryos degenerated on Day 3 [3, 5]: 44.2% | effect on fertilization capacity [2]: biphasic effect: Higher concentrations produce inhibition
